Data taken from patent publication US20250009819A1, “NOVEL PROBIOTICS AND USE THEREOF” (PBLBIOLAB CO., LTD., priority 2021, published 2025).

Tests used:
gut microbiota = test: LPS production in gut microbiota (ELISA); format: cell-based; settings: human feces culture; lactic acid bacteria 1×10^6 CFU/mL; anaerobic 24 hr
Procedure: Fresh human feces were suspended in anaerobic medium (GAM, Nissui Pharmaceutical Co., Ltd., Japan) and allowed to stand for 10 min. The supernatant was diluted with 10,000-fold anaerobic medium, 0.05 mL of the dilution was transplanted into 5 mL of freshly made anaerobic medium, and lactic acid bacteria (1×10^6 CFU/mL) were implanted and incubated anaerobically for 24 hr.

BDNF = BDNF expression in SH-SY5Y cells; format: cell-based; settings: LPS 200 ng/ml; lactic acid bacteria 1×10^4 CFU/ml; 24 h
Procedure: (§1) SH-SY5Y cells obtained from the Korean Cell Line Bank were cultured in DMEM medium supplemented with 10% FBS and 1% antibiotics, and dispensed at 2×10^6 cells per well in a 12-well plate. Then, LPS (200 ng/ml) was added to each well along with lactic acid bacteria (1×10^4 CFU/ml) and incubated for 24 h. The cells and supernatants were collected, sonicated and centrifuged, and the amount of BDNF in the supernatant was measured by ELISA kit.

[1] = Antioxidant activity (DPPH, in vitro); format: biochemical; settings: DPPH 0.2 mM; lactic acid bacteria suspension 1×10^8 CFU/ml; 37° C. 20 min
Procedure: DPPH (2,2-Diphenyl-1-picrylhydrazyl) was dissolved in ethanol to a concentration of 0.2 mM to prepare DPPH solution. Lactic acid bacteria suspension (1×10^8 CFU/ml) or vitamin C solution (1 g/ml) was added to 0.1 ml of the above DPPH solution and incubated at 37° C. for 20 min. The culture was centrifuged at 3000 rpm for 5 min to obtain a supernatant. The absorbance of the supernatant was then measured at 517 nm and the antioxidant activity of the lactic acid bacteria was calculated.

Neuropeptide Y (NPY) = Neuropeptide Y (NPY) expression in PC12 phaeochromocytoma cells; format: cell-based; settings: LPS 200 ng/ml; lactic acid bacteria 1×10^4 CFU/ml; 24 hr
Procedure: as §1, with “PC12” for “SH-SY5Y”, “1×10^6” for “2×10^6”, “hr.” for “h.”, “NPY” for “BDNF”

IL-10 = IL-10 expression in LPS-treated macrophages (ELISA); format: cell-based, C57BL/6 mice; settings: macrophages treated with lactic acid bacteria and LPS for 24 hours
Procedure: (§2) C57BL/6 mice (male, 6 weeks old, 20-23 g) were subjected to an intraperitoneal injection of 2 ml of sterile 4% thioglycolate solution, and after 96 hours, the mice were anesthetized and injected with 8 ml of RPMI 1640 medium through the peritoneal cavity. Then, after 5-10 minutes, the RPMI medium (macrophages) in the mouse peritoneal cavity was extracted, centrifuged at 1000 g for 10 minutes, and washed again with RPMI 1640 medium twice. Macrophages were seeded in 24-well plates at a count of 0.5×10^6 in each well, and treated with lactic acid bacteria and LPS, an inflammatory response-inducing substance, for 24 hours. TNF-α and IL-10 cytokine expression amount in the culture supernatant was then measured by ELISA Kit.

TNF-α = TNF-α expression in LPS-treated macrophages (ELISA); format: cell-based, C57BL/6 mice; settings: macrophages treated with lactic acid bacteria and LPS for 24 hours
Procedure: as §2

Clostridium difficile = Clostridium difficile proliferation in gut microbiota (PCR); format: cell-based; settings: human feces culture; lactic acid bacteria 1×10^6 CFU/mL; anaerobic 24 hr
Procedure: Fresh human feces were suspended in anaerobic medium (GAM, Nissui Pharmaceutical Co., Ltd., Japan) and allowed to stand for 10 min. The supernatant was diluted with 10,000-fold anaerobic medium, 0.05 mL of the dilution was transplanted into 5 mL of freshly made anaerobic medium, and lactic acid bacteria (1×10^6 CFU/mL) were implanted and incubated anaerobically for 24 hr. This culture medium was divided into two, one was centrifuged (5000 rpm, 20 minutes), the precipitated DNA was isolated using the QIAamp DNA stool mini kit (Qiagen, Germany), and Clostridium difficile (primer: forward, 5′-[…]-3′ (SEQ ID NO: 4); reverse, 5′-[…]-3′ (SEQ ID NO: 5) was quantified by PCR. The reaction product was first treated at 95° C. for 30 seconds, followed by 42 cycles of 5 seconds at 95° C. and 30 seconds at 72° C. for analysis. In addition, one culture medium was sonicated, centrifuged, and filter-sterilized, and the amount of LPS in the supernatant was measured using an ELISA kit.

Substance | Gut microbiota Inhibition of LPS production (gut microbiota) | SHSY5Y cell Induction of BDNF expression (BDNF) | Antioxidant activity [1] | PC12 cell Induction of NPY expression (Neuropeptide Y (NPY)) | Macrophage Induction of IL-10 expression (IL-10) | Macrophage Inhibition of TNF-α expression (TNF-α) | Gut microbiota Inhibition of difficile bacteria proliferation (Clostridium difficile)
Lactobacillus plantarum NK184 | + (weakly (+; >20-60%)) | − (not or less than 20% (−; <20%)) | ++ (strongly (++; >60-90%)) | − (not or less than 20% (−; <20%)) | + (weakly (+; >20-60%)) | + (weakly (+; >20-60%)) | + (weakly (+; >20-60%))
Lactobacillus sakei NK199 | − (not or less than 20% (−; <20%)) | − (not or less than 20% (−; <20%)) | + (weakly (+; >20-60%)) | − (not or less than 20% (−; <20%)) |  | + (weakly (+; >20-60%)) | − (not or less than 20% (−; <20%))
Bifidobacterium longum NK217 | − (not or less than 20% (−; <20%)) | − (not or less than 20% (−; <20%)) | + (weakly (+; >20-60%)) | − (not or less than 20% (−; <20%)) |  | + (weakly (+; >20-60%)) | − (not or less than 20% (−; <20%))
Lactobacillus paracasei NK192 |  | − (not or less than 20% (−; <20%)) | ++ (strongly (++; >60-90%)) | − (not or less than 20% (−; <20%)) | − (not or less than 20% (−; <20%)) | − (not or less than 20% (−; <20%)) | − (not or less than 20% (−; <20%))
Lactobacillus paracasei NK190 |  | − (not or less than 20% (−; <20%)) | + (weakly (+; >20-60%)) | + (weakly (+; >20-60%)) | − (not or less than 20% (−; <20%)) | − (not or less than 20% (−; <20%)) | + (weakly (+; >20-60%))
Lactococcus graminis NK206 |  |  | + (weakly (+; >20-60%)) | + (weakly (+; >20-60%)) | − (not or less than 20% (−; <20%)) | − (not or less than 20% (−; <20%)) | 
Lactobacillus paracasei NK191 |  | + (weakly (+; >20-60%)) | + (weakly (+; >20-60%)) | + (weakly (+; >20-60%)) | + (weakly (+; >20-60%)) | − (not or less than 20% (−; <20%)) | − (not or less than 20% (−; <20%))
Lactobacillus gasseri NK188 |  | − (not or less than 20% (−; <20%)) | + (weakly (+; >20-60%)) | − (not or less than 20% (−; <20%)) | + (weakly (+; >20-60%)) | + (weakly (+; >20-60%)) | + (weakly (+; >20-60%))
Bifidobacterium pseudocatenulatum NK229 | − (not or less than 20% (−; <20%)) | + (weakly (+; >20-60%)) | + (weakly (+; >20-60%)) | − (not or less than 20% (−; <20%)) |  | + (weakly (+; >20-60%)) | − (not or less than 20% (−; <20%))
Lactococcus graminis NK207 | + (weakly (+; >20-60%)) | − (not or less than 20% (−; <20%)) | − (not or less than 20% (−; <20%)) | − (not or less than 20% (−; <20%)) |  |  | + (weakly (+; >20-60%))
